We go through 11 compounds from ChEMBL document CHEMBL1143789, “Synthesis and biological study of medicinally important Mannich bases derived from 4-(dimethylamino)-1,4,4a,5,5a,6,11,12a-octahydro-3,6,10,12,12a pentahydroxy naphthacene carboxamide” (Bioorg Med Chem Lett, 2007).

Series [1] has as its system Salmonella enteritidis. Nature of the series: Antibacterial activity against Salmonella enteritidis at 40 mg/ml by paper disc method. Format: functional, Salmonella enterica subsp. enterica serovar Enteritidis. As to conditions: Salmonella enterica; read-out: IZ.
Series [2] relates to Salmonella enteritidis. Briefly: Antibacterial activity against Salmonella enteritidis at 20 mg/ml by paper disc method. Format: functional, Salmonella enterica subsp. enterica serovar Enteritidis. As to conditions: Salmonella enterica; read-out: IZ.
Series [3] deals with Pasteurella multocida. Nature of the series: Antibacterial activity against Pasteurella multocida at 20 mg/ml by paper disc method. The format is functional. As to conditions: read-out: IZ.
Series [4] relates to Pasteurella multocida. Nature of the series: Antibacterial activity against Pasteurella multocida at40 mg/ml by paper disc method. Format: functional.
Series [5] has as its system Salmonella enteritidis. Nature of the series: Antibacterial activity against Salmonella enteritidis at 30 mg/ml by paper disc method. Format: functional, Salmonella enterica subsp. enterica serovar Enteritidis. As to conditions: Salmonella enterica; read-out: IZ.
Series [6] concerns Pasteurella multocida. Briefly: Antibacterial activity against Pasteurella multocida at 30 mg/ml by paper disc method. Format: functional. As to conditions: read-out: IZ.
For series [7], the system named is Mus musculus. Briefly: Toxicity in mouse at 1000 mg/kg, ip after 72 hrs. The format is organism-based. Details: dose 1000 mg/kg, route intraperitoneal. The settings on record: in vivo.
Series [8] concerns Mus musculus. Briefly: Toxicity in mouse at 1600 mg/kg, po after 72 hrs. Format: organism-based. The arrangement: dose 1600 mg/kg, route oral. As to conditions: in vivo.

In the case of `Nc1ccc(S(=O)(=O)Nc2ncccn2)cc1` [SULFADIAZINE], the zone of inhibition at 40000 µg/mL with Salmonella enteritidis [1] is 20 mm. In addition, the zone of inhibition at 20000 µg/mL was 10 mm in the series on Salmonella enteritidis [2] and 28 mm in the series on Pasteurella multocida [3]. The “inhibition zone (IZ)” value in the series on Pasteurella multocida [4] was found to be 39 mm. Besides, the zone of inhibition at 30000 µg/mL in the series on Salmonella enteritidis [5] was 15 mm; in the series on Pasteurella multocida [6], 30 mm.
With `COc1ncnc(NS(=O)(=O)c2ccc(NCNC(=O)C3=C(O)C(N(C)C)C4CC5C(=C(O)C4(O)C3=O)C(=O)c3c(O)cccc3C5(C)O)cc2)c1OC` (configuration not stated), the zone of inhibition at 40000 µg/mL with Salmonella enteritidis [1] worked out at 15.5 mm. For the same compound, the zone of inhibition at 20000 µg/mL in the series with Salmonella enteritidis [2] worked out at 15 mm; with Pasteurella multocida [3], 22.1 mm. The figures for the Activity result with Mus musculus [7] and in the series on Mus musculus [8] were “Toxic” and “Non-toxic”, respectively. Further, the “inhibition zone (IZ)” value in the series on Pasteurella multocida [4] worked out at 24.4 mm. In addition, the zone of inhibition at 30000 µg/mL in the series with Salmonella enteritidis [5] amounted to 15.2 mm; in the series on Pasteurella multocida [6] it was 23.3 mm.
Regarding `CN(C)C1C(O)=C(C(=O)NCNc2ccc(S(=O)(=O)Nc3ncccn3)cc2)C(=O)C2(O)C(O)=C3C(=O)c4c(O)cccc4C(C)(O)C3CC12` (configuration not stated), the zone of inhibition at 40000 µg/mL with Salmonella enteritidis [1] was found to be 21.2 mm. Also, the zone of inhibition at 20000 µg/mL came out at 20 mm with Salmonella enteritidis [2] and 20.4 mm in the series with Pasteurella multocida [3]. Also, the Activity result in the series on Mus musculus [7] is listed as “Toxic”; in the series on Mus musculus [8], “Non-toxic”. The “inhibition zone (IZ)” value in the series on Pasteurella multocida [4] is 21.86 mm. In addition, the zone of inhibition at 30000 µg/mL in the series with Salmonella enteritidis [5] came to 20.9 mm; with Pasteurella multocida [6], 20.8 mm.
For `CC(=O)NS(=O)(=O)c1ccc(NCNC(=O)C2=C(O)C(N(C)C)C3CC4C(=C(O)C3(O)C2=O)C(=O)c2c(O)cccc2C4(C)O)cc1` (configuration not stated), the figures for the Activity entry in the series with Mus musculus [7] and in the series with Mus musculus [8] were “Toxic” and “Non-toxic”, respectively. In addition, the zone of inhibition at 20000 µg/mL in the series with Pasteurella multocida [3] is 26.2 mm. For the same compound, the “inhibition zone (IZ)” value in the series with Pasteurella multocida [4] came out at 28.3 mm. Moreover, the zone of inhibition at 30000 µg/mL in the series on Pasteurella multocida [6] turned out to be 27.3 mm.
For the compound `CN(C)C1C(O)=C(C(=O)NCNc2ccc(S(=O)(=O)NC(=N)N)cc2)C(=O)C2(O)C(O)=C3C(=O)c4c(O)cccc4C(C)(O)C3CC12` (configuration not stated), the zone of inhibition at 40000 µg/mL in the series with Salmonella enteritidis [1] amounted to 14.2 mm. Also, the zone of inhibition at 20000 µg/mL in the series on Salmonella enteritidis [2] is 13.2 mm; in the series with Pasteurella multocida [3] it was 24.1 mm. Moreover, the Activity entry is reported as “Toxic” in the series on Mus musculus [7] and “Non-toxic” in the series on Mus musculus [8]. Besides, in the series with Pasteurella multocida [4], the “inhibition zone (IZ)” value amounted to 25.2 mm. Besides, the zone of inhibition at 30000 µg/mL came out at 13.9 mm in the series with Salmonella enteritidis [5] and 24.3 mm in the series on Pasteurella multocida [6].
`Nc1ccc(S(N)(=O)=O)cc1` [SULFANILAMIDE]: the zone of inhibition at 40000 µg/mL in the series on Salmonella enteritidis [1] worked out at 16 mm. Moreover, the zone of inhibition at 20000 µg/mL in the series on Salmonella enteritidis [2] was 10 mm; in the series with Pasteurella multocida [3] it was 22 mm. Also, the “inhibition zone (IZ)” value in the series with Pasteurella multocida [4] was found to be 28 mm. Besides, the zone of inhibition at 30000 µg/mL in the series with Salmonella enteritidis [5] amounted to 12 mm; in the series on Pasteurella multocida [6] it was 25 mm.
Consider `Cc1cc(NS(=O)(=O)c2ccc(NCNC(=O)C3=C(O)C(N(C)C)C4CC5C(=C(O)C4(O)C3=O)C(=O)c3c(O)cccc3C5(C)O)cc2)no1` (configuration not stated), for which the zone of inhibition at 40000 µg/mL in the series with Salmonella enteritidis [1] stood at 22.1 mm. For the same compound, the zone of inhibition at 20000 µg/mL in the series on Salmonella enteritidis [2] worked out at 21.1 mm; in the series with Pasteurella multocida [3], 21.3 mm. Besides, the Activity result in the series with Mus musculus [7] was “Toxic”; in the series on Mus musculus [8] it was “Non-toxic”. The “inhibition zone (IZ)” value in the series with Pasteurella multocida [4] was 23.2 mm. The zone of inhibition at 30000 µg/mL in the series on Salmonella enteritidis [5] is 21.2 mm; in the series with Pasteurella multocida [6] it was 22 mm.
In the case of `Cc1cc(NS(=O)(=O)c2ccc(N)cc2)no1` [SULFAMETHOXAZOLE], the zone of inhibition at 40000 µg/mL in the series with Salmonella enteritidis [1] is 18 mm. In addition, the zone of inhibition at 20000 µg/mL in the series on Salmonella enteritidis [2] stood at 15 mm; with Pasteurella multocida [3] it was 24 mm. Further, in the series on Pasteurella multocida [4], the “inhibition zone (IZ)” value is reported as 28 mm. Besides, the zone of inhibition at 30000 µg/mL in the series with Salmonella enteritidis [5] was 15 mm; with Pasteurella multocida [6], 26 mm.
Take `CC(=O)NS(=O)(=O)c1ccc(N)cc1` [SULFACETAMIDE]: in the series on Pasteurella multocida [3], the zone of inhibition at 20000 µg/mL came out at 20.5 mm. Further, in the series on Pasteurella multocida [4], the “inhibition zone (IZ)” value is on record as 22.15 mm. Besides, the zone of inhibition at 30000 µg/mL in the series with Pasteurella multocida [6] was determined as 21.2 mm.
Turning to `N=C(N)NS(=O)(=O)c1ccc(N)cc1` [SULFAGUANIDINE], the zone of inhibition at 40000 µg/mL in the series on Salmonella enteritidis [1] was 18 mm. Also, the zone of inhibition at 20000 µg/mL in the series on Salmonella enteritidis [2] is 10 mm; with Pasteurella multocida [3], 20 mm. The “inhibition zone (IZ)” value in the series on Pasteurella multocida [4] was determined as 25 mm. Also, the zone of inhibition at 30000 µg/mL with Salmonella enteritidis [5] worked out at 15 mm; in the series on Pasteurella multocida [6] it was 25 mm.
As to `CN(C)C1C(O)=C(C(=O)NCNc2ccc(S(N)(=O)=O)cc2)C(=O)C2(O)C(O)=C3C(=O)c4c(O)cccc4C(C)(O)C3CC12` (configuration not stated), the zone of inhibition at 40000 µg/mL with Salmonella enteritidis [1] was 16 mm. Also, the zone of inhibition at 20000 µg/mL in the series on Salmonella enteritidis [2] stood at 14.7 mm; with Pasteurella multocida [3], 28.4 mm. Also, the figures for the Activity result with Mus musculus [7] and in the series on Mus musculus [8] were “Toxic” and “Non-toxic”, respectively. In addition, the “inhibition zone (IZ)” value in the series on Pasteurella multocida [4] is 29.08 mm. The zone of inhibition at 30000 µg/mL worked out at 15 mm in the series with Salmonella enteritidis [5] and 28.6 mm with Pasteurella multocida [6].
